According to US10676501B2, “Hydrogel materials incorporating eluting ceragenin compound” (BRIGHAM YOUNG UNIVERSITY, priority 2011, dated 2020):
Values after ≈ are worked out from the molar mass of the structure shown.

How the values were obtained:
[1] = Elution of CSA-138 from contact lenses without bacteria, quantified by scintillation counting; assay type: physicochemical
Experimental: To decrease the detection limit for CSA-138, we prepared a radiolabeled version of CSA-138 (CSA-138T2), incorporated it into contact lenses, and quantified its elution from lenses using scintillation counting.
Lenses containing 1% CSA-138 were stored in 0.5 mL phosphate buffered saline (PBS) prior to testing. One set of lenses was autoclaved for 45 min before elution studies were performed. For elution studies, lenses were suspended in 2 ml aliquots of PBS, 10% TSB growth medium, 10% TSB growth medium containing 10^6 CFU of Staphylococcus aureus, or 10% TSB growth medium containing 10^6 CFU of Pseudomonas aeruginosa. Corresponding aliquots were exchanged every 24 h, including bacterial inocula. Samples were removed every 24 h and analyzed for the presence of CSA-138 using scintillation counting. A standard curve was generated to correlate counts per minute to concentration of CSA-138. All experiments were performed in triplicate.

[2] = Elution of CSA-138 from contact lens hydrogel, quantified by LC/MS; assay type: physicochemical; conditions: lenses with CSA-138 incorporated at 1%; LC/MS detection limit about 2 μg/ml
Experimental: To better understand the mechanism by which ceragenin compounds can be eluted from a hydrogel to prevent bacterial colonization, we determined the rate at which CSA-138 elutes from a hydrogel suitable for use in contact lenses. To quantify the amount of ceragenin eluting from the hydrogel, we used LC/MS using a mass-labeled internal standard. However, this method only gave detection limits of about 2 μg/ml, and we were able to effectively kill bacteria at constant elution rates below the detection limit.

[3] = tested on: S. aureus; assay: MIC against S. aureus; assay type: cell-based
[4] = tested on: P. aeruginosa; assay: MIC against P. aeruginosa; assay type: cell-based
[5] = tested on: S. aureus; conditions: elution from lenses, inocula 10^6 CFU, consecutive days; cited from earlier work
[6] = tested on: P. aeruginosa; conditions: elution from lenses, inocula 10^6 CFU; cited from earlier work

For `CCCCCCCCNCCC[C@@H](C)[C@H]1CC[C@H]2[C@@H]3[C@H](OCCCN)C[C@@H]4C[C@H](OCCCN)CC[C@]4(C)[C@H]3C[C@H](OCCCN)[C@]12C` [CSA-13], the “elution profile in 10% TSB in PBS” value ([1]; 10% TSB in PBS, compared with PBS (FIG. 5)) was “elution decreased”.

For `CCCCCCCCCCCCCNCCC[C@@H](C)[C@H]1CC[C@H]2[C@@H]3[C@H](OCCCN)C[C@@H]4C[C@H](OCCCN)CC[C@]4(C)[C@H]3C[C@H](OCCCN)[C@]12C` [CSA-138], the “time until elution fell below detection limits” value [2] was “five”, the “initial amount of material that eluted” value ([1]; lenses autoclaved 45 min before the study, compared with non-autoclaved (FIG. 4)) was “decreased somewhat” and the “elution on the first day” value ([1]; lenses containing 1% CSA-138 in 2 ml PBS, day 1 (FIG. 3)) was “about 2.2 μg/ml”. For the same compound, the MIC [3] was 0.5 µg/mL (≈ 0.669 µM), the MIC [4] was 1.0 µg/mL (≈ 1.34 µM) and the “duration for which colonization is prevented” value [5] was 30 days. The “duration for which colonization is prevented” value [6] was 19 days.
